Source: ChEMBL document CHEMBL1201862, “PubChem BioAssay data set” (2004)
Activity calls are given as the source filed them.

Columns and labels:
[1] = molecular target: Beta-2 adrenergic receptor (Homo sapiens, UniProt P07550); assay: ADRB2 activation measured by internalization – cell-based, FAP fluorogen, flow cytometry, cherry pick 1, dose response (AID 588763); type: functional
[2] = system: MEF; assay: SAR analysis of small molecule cytotoxicity of MazEF TA System activators in embryonic fibroblast (MEF) cells. [Related pubchem assays (depositor defined):AID504720, AID504743]; type: functional; details: Mus musculus
[3] = molecular target: T1, Endoribonuclease toxin MazF (Escherichia coli K-12, UniProt P0AE70); assay: activation of MazEF endoribonuclease cleavage – biochemical, fluorescence, single-stranded RNA substrate, uHTS hits, dose response (AID 588481); type: functional
T1 sequence (P0AE70 whole entry): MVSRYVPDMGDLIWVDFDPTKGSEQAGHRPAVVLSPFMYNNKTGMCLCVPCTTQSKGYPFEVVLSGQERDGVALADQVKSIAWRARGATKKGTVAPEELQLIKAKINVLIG

[4] = molecular target: T1, Endoribonuclease toxin MazF; assay: substrate-only fluorescence increase artefacts – biochemical, single-stranded RNase substrate, counter-screen for MazEF activator project, dose response (AID 588502); type: functional
[5] = molecular target: T1, Endoribonuclease toxin MazF; assay: MazEF toxin-antitoxin RNase activation – biochemical, fluorescence, single-stranded RNA substrate, SAR follow-up (AID 588603); type: functional
[6] = molecular target: T1, Endoribonuclease toxin MazF; assay: SAR analysis of small molecule activators of the MazEF TA System via a fluorescence-based single-stranded RNase assay counterscreen. [Related pubchem assays (depositor defined):AID504720, AID504743]; type: functional
[7] = molecular target: Beta Lactamase (Pseudomonas aeruginosa, UniProt Q932Y6); assay: BLA reporter interference, concentration series – BLA reporter cells, FRET fluorescence, artefact control for TLR9-MyD88 binding inhibitor project, dose response (AID 588341); type: cell-based;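 note: cell based assay in CHO-K1 cells stably expressing beta-lactamase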
Sequence of Beta Lactamase (Q932Y6 whole entry, the tested form may be a part): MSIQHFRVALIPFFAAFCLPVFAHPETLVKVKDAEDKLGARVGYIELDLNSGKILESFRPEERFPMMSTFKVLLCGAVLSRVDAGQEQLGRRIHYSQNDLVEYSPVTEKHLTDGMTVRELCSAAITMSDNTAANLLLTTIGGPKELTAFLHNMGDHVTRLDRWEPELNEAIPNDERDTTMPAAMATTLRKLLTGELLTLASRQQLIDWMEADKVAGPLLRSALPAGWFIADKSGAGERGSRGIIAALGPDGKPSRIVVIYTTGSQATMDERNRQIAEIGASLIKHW

[8] = system: CHO; assay: CHO cell viability loss, potency – luminescence, cytotoxicity control for TLR9-MyD88 binding inhibitor project, dose response (AID 588339); type: functional, cell-based, hamster; details: Cricetulus griseus;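 note: CHO cells stably coexpressing TLR9 and MyD88 fusions from primary screen; compound exposure lasted 48 hours before viability readout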
[9] = molecular target: Cytochrome P450 2C9 (Homo sapiens, UniProt P11712)
Sequence of Cytochrome P450 2C9 (P11712 whole entry): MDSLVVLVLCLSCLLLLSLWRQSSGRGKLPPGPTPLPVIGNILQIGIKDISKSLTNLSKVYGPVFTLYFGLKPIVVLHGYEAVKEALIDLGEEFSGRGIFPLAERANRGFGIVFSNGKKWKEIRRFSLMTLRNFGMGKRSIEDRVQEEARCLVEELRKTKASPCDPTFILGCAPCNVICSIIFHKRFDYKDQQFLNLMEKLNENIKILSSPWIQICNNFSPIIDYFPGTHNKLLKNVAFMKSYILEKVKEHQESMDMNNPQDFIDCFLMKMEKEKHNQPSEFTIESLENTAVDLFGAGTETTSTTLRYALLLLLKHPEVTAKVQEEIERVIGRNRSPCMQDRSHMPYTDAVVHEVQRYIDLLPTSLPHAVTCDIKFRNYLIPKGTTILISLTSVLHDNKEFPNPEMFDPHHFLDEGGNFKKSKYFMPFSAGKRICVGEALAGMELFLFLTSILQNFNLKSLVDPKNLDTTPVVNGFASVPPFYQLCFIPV

[10] = molecular target: Cytochrome P450 2C19 (Homo sapiens, UniProt P33261); assay: Cytochrome panel assay with activity outcomes. Panel member name: p450-cyp2c19 Compounds with AC50 equal or less than 10 uM are considered active; type: functional; details: read-out: AC50
Sequence of Cytochrome P450 2C19 (P33261 whole entry): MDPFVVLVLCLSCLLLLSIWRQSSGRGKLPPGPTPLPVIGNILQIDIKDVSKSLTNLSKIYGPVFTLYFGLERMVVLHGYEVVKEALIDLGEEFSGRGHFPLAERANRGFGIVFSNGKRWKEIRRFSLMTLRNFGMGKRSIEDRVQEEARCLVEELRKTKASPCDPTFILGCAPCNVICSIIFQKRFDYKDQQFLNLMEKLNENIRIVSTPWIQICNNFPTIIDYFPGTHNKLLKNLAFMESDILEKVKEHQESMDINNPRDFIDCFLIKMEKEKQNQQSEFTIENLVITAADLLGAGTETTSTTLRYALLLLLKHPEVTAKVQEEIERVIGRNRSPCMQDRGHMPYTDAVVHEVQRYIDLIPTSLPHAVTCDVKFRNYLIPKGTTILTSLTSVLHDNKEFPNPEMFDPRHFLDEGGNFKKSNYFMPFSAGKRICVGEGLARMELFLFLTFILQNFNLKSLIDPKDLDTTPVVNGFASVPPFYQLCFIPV

[11] = system: BJ; assay: BJ-TERT fibroblast viability loss – cell-based, RAS-independent, luminescence, dose response (AID 1933); type: functional; details: Homo sapiens
[12] = system: BJ; assay: growth inhibition of engineered Ras-driven BJ cells – cell-based, alamar blue fluorescence, cherrypicked samples, dose response (AID 2631); type: functional; details: Homo sapiens;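 note: confirmatory dose-response assay in RAS-dependent BJ fibroblasts engineered with TERT, LT and ST, with cytotoxicity read by fluorescence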
[13] = system: BJ; assay: cells; type: functional, cell-based; details: Homo sapiens
[14] = DRD fibroblast viability loss – cell-based, non-viral oncogenic, luminescence, dose response (AID 1934); type: functional; details: Homo sapiens
[15] = system: INS1; assay: INS-1E survival protection against cytokine death – cell-based, luminescence, retest, dose response (AID 449756); type: functional; details: Rattus norvegicus;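 note: cell death triggered by IL-1 beta plus TNF-alpha plus IFN-gamma mixture; protective hits raise ATP signal compared with cytokine alone wells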
[16] = system: BJ; assay: BJ-TERT-LT-ST fibroblast viability loss – cell-based, RAS-independent, luminescence, dose response (AID 1935); type: functional; details: Homo sapiens;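 note: BJ fibroblasts immortalized with TERT plus LT and ST oncogenes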

Sequence of Beta-2 adrenergic receptor (P07550 whole entry): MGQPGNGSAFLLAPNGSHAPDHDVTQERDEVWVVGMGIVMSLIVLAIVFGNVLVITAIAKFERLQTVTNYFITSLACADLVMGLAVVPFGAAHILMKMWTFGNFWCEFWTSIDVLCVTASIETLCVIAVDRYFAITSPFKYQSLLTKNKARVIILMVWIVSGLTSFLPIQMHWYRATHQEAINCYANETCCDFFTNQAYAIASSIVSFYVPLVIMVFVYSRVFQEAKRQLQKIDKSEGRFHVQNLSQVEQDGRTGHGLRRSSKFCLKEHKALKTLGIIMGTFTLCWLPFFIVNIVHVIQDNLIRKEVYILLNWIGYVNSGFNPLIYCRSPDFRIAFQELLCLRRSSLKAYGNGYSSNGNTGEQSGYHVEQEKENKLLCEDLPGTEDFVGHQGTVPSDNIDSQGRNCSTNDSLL

O=C(Cc1ccccc1)NC1(Cc2ccc(O)cc2)CCCCC1
EC50 [1]: 7.47 µM (active)

N#Cc1ccc(N2C(=O)[C@@H]3C(C(=O)c4ccc5ccccc5n4)=NN[C@@H]3C2=O)cc1
CC50 [2]: > 99 µM (inactive)
EC50 [3]: 15.1 µM (active)
EC50 [4]: 0.271 µM (active)
EC50 [5]: 7.74 µM (active)
EC50 [6]: > 99 µM (inactive)

Nc1ccc2c(c1)Cc1cc([N+](=O)[O-])ccc1-2
IC50 [7]: 6.37 µM (active)
IC50 [8]: > 49.8 µM (inactive)

O=C(COc1ccc([N+](=O)[O-])cc1)Nc1ccc(C(=O)NCc2cccnc2)cc1
AC50 [9]: 22.4 µM (inconclusive)
AC50 [10]: 7.94 µM (inconclusive)
EC50 [11]: > 150 µM (not active)
EC50 [12]: 2.51 µM (inconclusive)
EC50 [13]: 12.8 µM (inconclusive)
EC50 [14]: > 150 µM (not active)
AC50 [15]: < 0.195 µM (active)
EC50 [16]: > 150 µM (not active)
